Tests used:
Assay type in all cases: in vivo, mouse
[1] = system: Acute Renal Failure Animal Model; test: Test using acute renal failure animal model (renal ischemia and reperfusion), renal function parameters; details: for Cer: creatinine clearance; for FENa: fractional excretion of sodium; for KW: kidney weight
Excerpt: A male ddY strain mouse (30 g) was used as an experimental animal. Under anesthesia with isoflurane, the right flank was incised about 2 cm to expose the kidney. After ligating the renal arteries and veins and the ureter, the right kidney was isolated.
A recovery period of 2 weeks was given, and then an acute renal failure mouse model was produced. Under anesthesia with isoflurane, the left abdomen was incised about 3 cm to expose the left kidney, and the fat around the renal arteries and veins was removed. The blood flow in the left renal arteries and veins was blocked using an atraumatic clip, and the kidney was left in ischemia for 45 minutes. The blood flow was then reperfused by removing the atraumatic clip, the kidney was returned to the abdominal cavity, and the flank was sutured. Mice similarly subjected to the steps other than the ischemia and reperfusion steps using the atraumatic clip were designated as a sham group (eight mice).
After 15 minutes of the initiation of ischemia, the vehicle, SMTP-7, SMTP-27, SMTP-44D, and edaravone were continuously administered to the femoral vein for 30 minutes.
24 hours after the ischemia and reperfusion processes, urine was collected for 24 hours using a metabolic cage, and the urinary output (UF; μL/min/kg) was measured. During collecting urine, only water was freely given. After urine collection, the body weight of each mouse was measured, and blood was collected from the abdominal aorta under anesthesia with isoflurane. After blood collection, the left kidney was isolated and the fat was removed in physiological saline. The kidney weight (KW; mg/g) was measured, and then the kidney was fixed in a 10% neutral buffered formalin solution for Hematoxylin Eosin (HE) staining.
The collected blood was centrifuged at 800×g for 15 minutes at 25° C. to collect serum. Further, the urine collected using a metabolic cage was also used to evaluate renal function. In order to evaluate parameters in the serum, blood urea nitrogen (BUN; mg/dL) was measured using a QuantiChrom Urea Assay Kit (Funakoshi Co., Ltd.). Serum creatinine concentration (Scr; mg/dL) and urinary creatinine concentration (Ucr; mg/dL) were measured using LabAssay (trademark) Creatinine (manufactured by Wako Pure Chemical Industries, Ltd.), and creatinine clearance (Ccr; mL/min/kg) was calculated. The concentrations of sodium in the serum and urine were measured using Fuji Dry Chem 7000 (manufactured by FUJIFILM Corporation), and fractional excretion of sodium (FENa; %) was calculated. Urinary albumin concentration (Ualb; mg/hr/kg) was measured using Albwel M (manufactured by Cosmo Bio Co., Ltd.).
(§1) In Table 11, the experimental results are expressed in mean±standard error in eight mice in each group. For comparison among multiple groups, firstly, one-way analysis of variance (ANOVA) was conducted, and then a Bonferroni test was conducted, if significant difference was recognized. Significant difference was recognized with a significance level of less than 5% (P<0.05).

[2] = system: Acute Renal Failure Animal Model; test: Acute renal failure animal model, pathological tissue specimen (HE staining) lesion scores; details: 3 mg/kg
Experimental: 24 hours after the ischemia and reperfusion processes, urine was collected for 24 hours using a metabolic cage, measurement of body weight was conducted, and blood was collected. Thereafter, nephrectomy was conducted, and formalin-fixed kidney was permeated with paraffin using an automatic embedding device to produce a paraffin block. The paraffin block was sliced into 3 μm sections with a microtome, and placed on a slide glass. Then, the sections were stretched with a paraffin stretcher at 52° C., and sufficiently dried overnight in a paraffin melter at 37° C. After deparaffinization and washing with water, the sections were stained with a Mayer's hematoxylin staining solution for 1 minute and washed with running water for 15 minutes. Thereafter, the sections were stained with an eosin staining solution for 45 seconds, and dehydrated with 80% to 100% ethanol, followed by clearing with xylene and sealing with marinol. Each specimen was examined microscopically at a magnification of 50 using an optical microscope. With respect to tubular dilatation, tubular necrosis, and tubular casts in the cortex, outer zone of outer medulla, and inner zone of outer medulla, the percentage of lesions in each site was evaluated according to the following criteria.
as §1, with “12,” for “11,”

[3] = system: Chronic Renal Failure Animal Model; test: Test using chronic renal failure animal model (nephrectomy + acetic acid application), renal function parameters; details: Table 10 experiment (edaravone instead of SMTP-7); 30 mg/kg, same regimen as the SMTP-7 30 mg/kg group
Experimental: A male ddY strain mouse (body weight: 30 g to 40 g) was used. Under anesthesia with isoflurane, the right flank of the mouse was incised, the renal arteries and veins were ligated, and then the right kidney was isolated. After suturing, acrinol was applied to the suture site as a disinfection treatment, and enrofloxacin was subcutaneously administered at 5 mg/kg as a preventive measure against infection, and acetaminophen was subcutaneously administered at 75 mg/kg as an analgesic treatment. After a recovery period of 3 to 4 weeks, the left abdomen of the mouse was incised, 100% acetic acid was applied to both sides of the kidney 10 times. This was defined as one course, and two courses were conducted at 5 minute intervals. After suturing, postoperative treatment was conducted in the same manner as in the removal of one of the kidneys. Considering the effect of surgery, a sham group to which acetic acid was not applied was provided.
4 weeks after the application of acetic acid, SMTP-7 was administered at a dose of 10 mg/kg or 30 mg/kg. The administration was carried out three times a week for 8 consecutive weeks by intraperitoneal administration. In addition, physiological saline was similarly administered to the sham group (without acetic acid application) and the Control group (with acetic acid application).
12 weeks after the application of acetic acid, urine was collected for 24 hours using a metabolic cage, and the urinary output was measured. During collecting urine, water was freely given. After urine collection, blood was collected from the descending aorta, the collected blood was centrifuged at 3000 rpm for 15 minutes, serum was separated, and BUN (urea nitrogen) and sCr (serum creatinine value) were measured. Further, protein and creatinine in the urine were also measured to calculate creatinine clearance (Ccr). BUN was measured using Urea B-test Wako (manufactured by Wako Pure Chemical Industries, Ltd.) and a QuantiChrom Urea Assay Kit (manufactured by Funakoshi Co., Ltd.), sCr was measured using Lab Assay Creatinine (manufactured by Wako Pure Chemical Industries, Ltd.), and urinary protein was measured using a BCA Protein assay kit (Thermo Fisher Scientific).
Renal function was evaluated by measuring BUN, sCr, urinary output, and urinary protein. In addition, urinary creatinine was measured to calculate creatinine clearance (Ccr).
In Table 9, the experimental results are expressed in mean±standard error. With reference to statistically significant difference, an unpaired test between two groups (Student's t-test) was conducted for comparison between two groups, and one-way analysis of variance was conducted and then a Dunnett test was conducted for comparison among multiple groups. In all cases, a significance level of 5% or less (P<0.05) was regarded as significant difference.
The experiment and evaluation were carried out in the same manner as in the SMTP-7 (30 mg/kg) administration group, except that edaravone (30 mg/kg) was administered instead of SMTP-7 in the SMTP-7 (30 mg/kg) administration group.

[4] = 30 mg/kg continuous femoral vein 30 min from 15 min after start of 45 min ischemia, mean±SE, 8 mice
[5] = 30 mg/kg, acute renal failure model
[6] = 30 mg/kg continuous femoral vein 30 min from 15 min after start of 45 min ischemia, mean±SE, 8 mice, 30 mg/kg
[7] = urinary albumin, 30 mg/kg continuous femoral vein 30 min from 15 min after start of 45 min ischemia, mean±SE, 8 mice
[8] = urinary output, 30 mg/kg continuous femoral vein 30 min from 15 min after start of 45 min ischemia, mean±SE, 8 mice
[9] = 3 mg/kg continuous femoral vein 30 min from 15 min after start of 45 min ischemia, mean±SE, 8 mice
[10] = 3 mg/kg, acute renal failure model
[11] = 3 mg/kg continuous femoral vein 30 min from 15 min after start of 45 min ischemia, mean±SE, 8 mice, 3 mg/kg
[12] = points 0 (no lesion) to 4 (severe, 50% or more), mean±SE, 8 mice

SMILES: CC(C)=CCC/C(C)=C/CCC1(C)Oc2c(c(O)cc3c2CN(c2cc(C(=O)O)ccc2O)C3=O)CC1O (stereo not drawn) [SMTP-27]
- BUN [1, 4]: 59.7 ± 10.5 mg/dL
- Scr [1, 4]: 0.5 ± 0.0 mg/dL
- UF [1, 5]: 4.67 ± 0.984 mL/h/kg
- Ualb [1, 5]: 2.0 ± 0.4 mg/h/kg
- Cer [1, 6]: 150 ± 6 mL/h/kg
- FENa [1, 6]: 0.8±0.1%
- KW [1, 6]: 13.8 ± 0.7 mg/g
- Ualb [1, 7]: 2 ± 0.4 mg/h/kg
- UF [1, 8]: 4.67 ± 0.984 mL/h/kg

SMILES: CC(C)=CCCC(C)=CCCC1(C)Oc2c(c(O)cc3c2CN(C(C(=O)O)c2ccc(O)cc2)C3=O)CC1O (stereo not drawn) [SMTP-44D]
- BUN [1, 4]: 55.7 ± 14.2 mg/dL
- Scr [1, 4]: 0.6 ± 0.1 mg/dL
- UF [1, 5]: 6.192 ± 2.008 mL/h/kg
- Ualb [1, 5]: 1.3 ± 0.3 mg/h/kg
- Cer [1, 6]: 138 ± 24 mL/h/kg
- FENa [1, 6]: 1.2±0.1%
- KW [1, 6]: 12.3 ± 1.2 mg/g
- Ualb [1, 7]: 1.3 ± 0.3 mg/h/kg
- UF [1, 8]: 6.19 ± 2.02 mL/h/kg

SMILES: CC1=NN(c2ccccc2)C(=O)C1 [edaravone, reference compound]
- BUN [1, 9]: 61.1 ± 5.9 mg/dL
- Scr [1, 9]: 0.5 ± 0.0 mg/dL
- UF [1, 10]: 3.32 ± 0.726 mL/h/kg
- Ualb [1, 10]: 0.9 ± 0.2 mg/h/kg
- Cer [1, 11]: 126 ± 12 mL/h/kg
- FENa [1, 11]: 1.0±0.1%
- KW [1, 11]: 13.4 ± 0.6 mg/g
- Ualb ([1]; urinary albumin, 3 mg/kg continuous femoral vein 30 min from 15 min after start of 45 min ischemia, mean±SE, 8 mice): 0.9 ± 0.2 mg/h/kg
- UF ([1]; urinary output, 3 mg/kg continuous femoral vein 30 min from 15 min after start of 45 min ischemia, mean±SE, 8 mice): 3.32 ± 0.726 mL/h/kg
- Histopathological changes (lesion changes), result in words ([2]; compared to control group): lesion changes were significantly improved only in tubular necrosis and tubular casts in the outer zone of outer medulla of the kidney and tubular casts in the inner zone of outer medulla
- Tubular cast score, Cortex [2, 12]: 0.9 ± 0.1
- Tubular cast score, Inner zone of outer medulla [2, 12]: 1.5 ± 0.4
- Tubular cast score, Outer zone of outer medulla [2, 12]: 1.0 ± 0.2
- Tubular dilatation score, Cortex [2, 12]: 3.0 ± 0.5
- Tubular dilatation score, Inner zone of outer medulla [2, 12]: 2.4 ± 0.5
- Tubular dilatation score, Outer zone of outer medulla [2, 12]: 2.4 ± 0.5
- Tubular necrosis score, Cortex [2, 12]: 0.9 ± 0.1
- Tubular necrosis score, Inner zone of outer medulla [2, 12]: 0.9 ± 0.1
- Tubular necrosis score, Outer zone of outer medulla [2, 12]: 0.9 ± 0.1
- Urinary output [3]: 3.77 ± 0.704 mL/h/kg
- Urinary protein [3]: 553 ± 109 mg/kg/day
